Key:
[1] = test system: primary rat hepatocytes; assay: AlamarBlue cell viability assay; conditions: 24 hours
Description: (§1) Identification of toxicity markers was performed by microarray analysis and by the AlamarBlue® assay, a classical measure of cytotoxicity. The AlamarBlue® assay was performed in triplicate.
(§2) The source of the primary rat hepatocytes was Sprague Dawley Outbred CDs Rats (CRL:CD®[SD] IGS BR, Charles River Laboratories). […] Primary rat hepatocytes were received the day after the cells were removed from the animals. After arrival, the cells, the cells were incubated overnight (˜15 hrs) before the toxin was added to the cultures. […] Toxin or vehicle was administered to hepatocyte cultures as follows. For each treatment, i.e., vehicle alone, vehicle+toxin at low dose, or vehicle+toxin at high dose, cells were harvested after 3, 6 and 24-hour incubations with the toxin solution or with the vehicle.
(§3) The AlamarBlue® assay was performed as follows, using only the 24-hour time point samples. • 1. […] The culture medium (HIM) was removed from each well and replaced with 500 μl of fresh HIM following arrival of the cells, and the cells were incubated overnight (approximately 15 hrs) at 37° C., 5% CO2. • 3. The next day, the HIM was removed and 500 μl of the medium containing either vehicle or a dose of toxin was added. • 4. Lysis solution was used as a negative control. 450 μl medium+50 μl 9% Triton X100 were added to each of 3 wells containing cells, for a final Triton concentration of 1%. • 5. The cells in all wells were incubated for 24 hours at 37° C., 5% CO2. • 6. HIM medium was removed, and a solution containing 500 μl of fresh HIM medium+50 μl AlamarBlue® (BioSource International, Inc., Cat. No. DAL1100) was added to each well. • 7. The cells were incubated at 37° C., 5% CO2 for 2 hours. • 8. 100 μl medium was removed from each well of the 24-well plate and added to a well of a 96-well plate. […] Alternatively, two absorbance readings can be measured for the oxidized (600 nm) and the reduced (570 nm) form of AlamarBlueg. After obtaining absorbance readings, results were calculated according to the manufacturer's protocol provided in the product description. • 9. The data were evaluated to determine whether or not the toxin reduced cell viability. If so, the dose of the toxin that reduced cell viability by ˜10-20% was determined. Collection of RNA from Rat Hepatocytes

[2] = AlamarBlue cell viability assay; conditions: male, Sprague-Dawley, rat
Description: as §1, §2, §3

[3] = test system: rats; assay: AY-25329 14 day rat study: serum chemistry and light microscopy; type: in vivo
From the text: The present inventors have noted indications of liver and renal effects of AY-25329 by changes in serum chemistry. […] Most of these markers of renal and liver dysfunction remained altered throughout the 14 day study period.

[4] = test system: male Sprague Dawley (SD) rats; conditions: within 48 hours post dose; 0.1, 1, 2, 3, 4 mL/kg ip; […] po; cited from earlier work
[5] = test system: patients; conditions: 180 reported cases; cited from earlier work
[6] = test system: rats; assay: Lovastatin dosing of rats, liver tissue examination; type: in vivo, rat
[7] = oral doses; cited from earlier work
[8] = test system: patients; conditions: human, in vivo; cited from earlier work

## C#C[C@]1(O)CC[C@H]2[C@@H]3CCc4cc(O)ccc4[C@H]3CC[C@@]21C [17α-ethinylestradiol]
[1]; high dose 100 uM
  % viability by AlamarBlue test: ~80%
[1]; low dose 10 uM
  % viability by AlamarBlue test: ~100%

## S=C=Nc1cccc2ccccc12 [ANIT, α-naphthylisothiocyanate]
[2]
  viability at 24 h, 25 uM: ~100%
  viability at 24 h, 250 uM: ~60%

## O=C(CCN1CCN2CCCC2C1)N1c2ccccc2Sc2ccc(Cl)cc21 (stereo not shown) [AY-25329]
[2]
  viability at 24 h, 5 uM: ~100%
  viability at 24 h, 50 uM: ~90%
[3]; 6 and 24 hours
  light microscopic analysis, effects in the liver: increased number of hepatocytic mitotic figures and decreased glycogen content
[3]; 14 days of repeated dosing, 250 mg/kg/day
  findings after repeated dosing: nephrosis and alterations in the peripheral lobes of the liver and in the cytoplasm of hepatocytes
[3]; as early as 6 hours after the first dose
  serum levels of creatinine, BUN, ALT, triglycerides and cholesterol: statistically significant increases

## ClC(Cl)(Cl)Cl [CCl4, carbon tetrachloride]
[2]
  viability at 24 h, 0.1 mM: ~100%
  viability at 24 h, 10 mM: 80 to 85%
[4]
  ALT and AST peak levels, fold increases: 5-10 fold

## NC(=O)N1c2ccccc2C=Cc2ccccc21 [Carbamazepine]
[2]
  viability at 24 h, 0.01 mM: ~100%
  viability at 24 h, 1 mM: ~90%

## CN(C)CCCN1c2ccccc2Sc2ccc(Cl)cc21 [Chlorpromazine]
[2]
  viability at 24 h, 3 uM: ~100%

## CCOC(=O)C(C)(C)Oc1ccc(Cl)cc1 [Clofibrate]
[2]
  viability at 24 h, 0.5 mM: ~100%
  viability at 24 h, 5 mM: 80 to 85%

## CC(=O)O[C@]1(C(C)=O)CC[C@H]2[C@@H]3C=C(Cl)C4=CC(=O)[C@@H]5C[C@@H]5[C@]4(C)[C@H]3CC[C@@]21C [Cyproterone acetate]
[2]
  viability at 24 h, 40 uM: ~100%
  viability at 24 h, 400 uM: 65 to 70%

## CN(C)N=O [DMN, dimethylnitrosamine]
[1]; high dose 100 mM
  % viability by AlamarBlue test: ~80-85%
[1]; low dose 1 mM
  % viability by AlamarBlue test: ~100%

## O=C(O)Cc1ccccc1Nc1c(Cl)cccc1Cl [Diclofenac]
[2]
  viability at 24 h, 55 uM: ~100%
  viability at 24 h, 550 uM: ~70%
[5]
  jaundice, share of the symptomatic patients: 75%

## O=C(O)c1cc(-c2ccc(F)cc2F)ccc1O [Diflunisal]
[2]
  viability at 24 h, 30 uM: ~100%
  viability at 24 h, 300 uM: 85 to 90%

## Cc1ccc(C)c(OCCCC(C)(C)C(=O)O)c1 [Gemfibrozil, gemfibrozil]
[2]
  viability at 24 h, 0.3 mM: ~100%
  viability at 24 h, 3 mM: ~50%

## NN [Hydrazine]
[2]
  viability at 24 h, 0.1 mM: 90 to 95%
  viability at 24 h, 1 mM: 80 to 85%

## COc1ccc2c(c1)c(CC(=O)O)c(C)n2C(=O)c1ccc(Cl)cc1 [Indomethacin]
[2]
  viability at 24 h, 0.1 mM: ~100%
  viability at 24 h, 1 mM: 85 to 90%

## CC[C@H](C)C(=O)O[C@H]1C[C@@H](C)C=C2C=C[C@H](C)[C@H](CC[C@@H]3C[C@@H](O)CC(=O)O3)[C@H]21 [Lovastatin]
[2]
  viability at 24 h, 0.1 mM: ~100%
  viability at 24 h, 1 mM: ~100%
[6]; 9 or 90 mg/kg twice a day, after 6 or after 24 hours
  effects in liver tissue: no effects were noted
[6]; after 14 days of treatment at the higher dosage (90 mg/kg twice a day)
  effects in liver cells: abnormal vacuolization of the cytoplasm
[7]
  metabolites excreted in the urine: less than 13%

## CN(Cc1cnc2nc(N)nc(N)c2n1)c1ccc(C(=O)N[C@@H](CCC(=O)O)C(=O)O)cc1 [Methotrexate]
[2]
  viability at 24 h, 1 mM: ~100%
  viability at 24 h, 10 mM: ~90%

## CCC1(c2ccccc2)C(=O)NC(=O)NC1=O [Phenobarbital]
[2]
  viability at 24 h, 0.8 mM: ~100%
  viability at 24 h, 8 mM: > 95%

## CC/C(=C(\c1ccccc1)c1ccc(OCCN(C)C)cc1)c1ccccc1 [Tamoxifen]
[2]
  viability at 24 h, 4 uM: ~100%
  viability at 24 h, 40 uM: ~45%

## CN(C)[C@@H]1C(O)=C(C(N)=O)C(=O)[C@@]2(O)C(O)=C3C(=O)c4c(O)cccc4[C@@](C)(O)[C@H]3C[C@@H]12 [Tetracycline]
[2]
  viability at 24 h, 0.1 mM: ~100%
  viability at 24 h, 1 mM: 85 to 90%

## CCCC(CCC)C(=O)O [Valproate, n-dipropylacetic acid]
[2]
  viability at 24 h, 0.4 mg/ml: ~100%
[8]
  patients with elevated levels of hepatic enzymes: about 40%

## Cc1cccc(Nc2cc(Cl)nc(SCC(=O)O)n2)c1C [Wy-14643]
[2]
  viability at 24 h, 10 uM: ~100%
  viability at 24 h, 100 uM: ~90%
